This data set has as its system CCRIS mutagenicity, Ames/micronucleus/aberration tests. Briefly: CCRIS mutagenicity studies.
Setting [1] is: Test System: AMES SALMONELLA TYPHIMURIUM, Strain/Indicator: TA98, Metabolic Activation: NONE, Method: STANDARD PLATE.
[2] abbreviates: Test System: AMES SALMONELLA TYPHIMURIUM, Strain/Indicator: TA98, Metabolic Activation: RAT, LIVER, S-9, AROCLOR 1254, Method: STANDARD PLATE.
The mark [3] stands for this setting: Test System: AMES SALMONELLA TYPHIMURIUM, Strain/Indicator: TA100, Metabolic Activation: NONE, Method: PREINCUBATION
Where [4] appears, read: Test System: AMES SALMONELLA TYPHIMURIUM, Strain/Indicator: TA100, Metabolic Activation: NONE, Method: STANDARD PLATE.
The mark [5] stands for this setting: Test System: AMES SALMONELLA TYPHIMURIUM, Strain/Indicator: TA100, Metabolic Activation: RAT, LIVER, S-9, AROCLOR 1254, Method: STANDARD PLATE.

From PubChem BioAssay AID1259407 (Chemical Carcinogenesis Research Information System (CCRIS), 2018) come the findings set out here.

Activity calls are given as the source filed them. No rule for the calls is given here.

Take `COCCO`: the mutagenic call (Test System: AMES SALMONELLA TYPHIMURIUM, Strain/Indicator: TA97, Metabolic Activation: HAMSTER, LIVER, S-9, AROCLOR 1254 (10 OR 30%), Method: PREINCUBATION) is “inactive; negative”; the mutagenic call (Test System: AMES SALMONELLA TYPHIMURIUM, Strain/Indicator: TA97, Metabolic Activation: NONE, Method: PREINCUBATION) was “inactive; negative”; the mutagenic call (Test System: AMES SALMONELLA TYPHIMURIUM, Strain/Indicator: TA97, Metabolic Activation: RAT, LIVER, S-9, AROCLOR 1254 (10 OR 30%), Method: PREINCUBATION) was “inactive; negative”; the mutagenic call (Test System: AMES SALMONELLA TYPHIMURIUM, Strain/Indicator: TA97A, Metabolic Activation: NONE, Method: STANDARD PLATE) is “inactive; negative”; the mutagenic call (Test System: AMES SALMONELLA TYPHIMURIUM, Strain/Indicator: TA97A, Metabolic Activation: RAT, LIVER, S-9, AROCLOR 1254, Method: STANDARD PLATE) was “inactive; negative”; the mutagenic call (Test System: AMES SALMONELLA TYPHIMURIUM, Strain/Indicator: TA98, Metabolic Activation: HAMSTER, LIVER, S-9, AROCLOR 1254 (10 OR 30%), Method: PREINCUBATION) was “inactive; negative”. Besides, the mutagenic call was “inactive; negative” (Test System: AMES SALMONELLA TYPHIMURIUM, Strain/Indicator: TA98, Metabolic Activation: NONE, Method: PREINCUBATION); “inactive; negative” under setting [1]; “inactive; negative” (Test System: AMES SALMONELLA TYPHIMURIUM, Strain/Indicator: TA98, Metabolic Activation: RAT, LIVER, S-9, AROCLOR 1254 (10 OR 30%), Method: PREINCUBATION); “inactive; negative” under setting [2]; “inactive; negative” (Test System: AMES SALMONELLA TYPHIMURIUM, Strain/Indicator: TA100, Metabolic Activation: HAMSTER, LIVER, S-9, AROCLOR 1254 (10 OR 30%), Method: PREINCUBATION); “inactive; negative” under setting [3]. For the same molecule, the mutagenic call was “inactive; negative” under setting [4]; “inactive; negative” (Test System: AMES SALMONELLA TYPHIMURIUM, Strain/Indicator: TA100, Metabolic Activation: RAT, LIVER, S-9, AROCLOR 1254 (10 OR 30%), Method: PREINCUBATION); “inactive; negative” under setting [5]; “inactive; negative” (Test System: AMES SALMONELLA TYPHIMURIUM, Strain/Indicator: TA102, Metabolic Activation: NONE, Method: STANDARD PLATE); “inactive; negative” (Test System: AMES SALMONELLA TYPHIMURIUM, Strain/Indicator: TA102, Metabolic Activation: RAT, LIVER, S-9, AROCLOR 1254, Method: STANDARD PLATE); “inactive; negative” (Test System: AMES SALMONELLA TYPHIMURIUM, Strain/Indicator: TA1535, Metabolic Activation: HAMSTER, LIVER, S-9, AROCLOR 1254 (10 OR 30%), Method: PREINCUBATION). The mutagenic call is, setting by setting: (Test System: AMES SALMONELLA TYPHIMURIUM, Strain/Indicator: TA1535, Metabolic Activation: NONE, Method: PREINCUBATION) “inactive; negative”; (Test System: AMES SALMONELLA TYPHIMURIUM, Strain/Indicator: TA1535, Metabolic Activation: RAT, LIVER, S-9, AROCLOR 1254 (10 OR 30%), Method: PREINCUBATION) “inactive; negative”; (Test System: CHINESE HAMSTER OVARY, Strain/Indicator: CHO AS52 (GPT)/6-THIOGUANINE, Metabolic Activation: NONE) “inactive; negative”; (Test System: CHINESE HAMSTER OVARY, Strain/Indicator: CHO-AS52/6-THIOGUANINE, Metabolic Activation: NONE) “inactive; negative”; (Test System: CHINESE HAMSTER OVARY, Strain/Indicator: CHO-K1-BH4 (HGPRT)/6-THIOGUANINE, Metabolic Activation: NONE) “inactive; negative”; (Test System: CHINESE HAMSTER OVARY, Strain/Indicator: CHO-K1-BH4 (HGPRT)/6-THIOGUANINE, Metabolic Activation: RAT, LIVER, S-9, AROCLOR 1254) “inactive; negative”.

Take `CC(=O)Nc1ccc(S(=O)(=O)c2ccc(NC(C)=O)cc2)cc1`: the mutagenic call by setting is: under setting [1], “inactive; negative”; (Test System: AMES SALMONELLA TYPHIMURIUM, Strain/Indicator: TA98, Metabolic Activation: RAT, LIVER, S-9, PCB, Method: STANDARD PLATE) “inactive; negative”; under setting [4], “inactive; negative”; (Test System: AMES SALMONELLA TYPHIMURIUM, Strain/Indicator: TA100, Metabolic Activation: RAT, LIVER, S-9, PCB, Method: STANDARD PLATE) “inactive; negative”.

Take `ClCc1cc2cccc3ccc4cc5ccccc5c1c4c32`: the mutagenic call under setting [1] is “active; positive” and the mutagenic call under setting [4] was “active; positive”.

Regarding `CC1(c2ccc([N+](=O)[O-])cc2)CO1` (stereo not given), the mutagenic call under setting [3] was “active; positive”.

`[2H]C([2H])([2H])N=NO`: the mutagenic call is “active; positive” (Test System: AMES SALMONELLA TYPHIMURIUM, Strain/Indicator: TA1535, Metabolic Activation: NONE, Method: STANDARD PLATE); “active; positive” (Test System: E. COLI, Strain/Indicator: WP2, Metabolic Activation: NONE, Method: STANDARD PLATE); “active; positive” (Test System: E. COLI, Strain/Indicator: WP2 UVRA, Metabolic Activation: NONE, Method: STANDARD PLATE).

Consider `CCOc1cc(N=Nc2ccc(N(CC)CC)cc2)ccc1N=Nc1c(S(=O)(=O)O)cc2ccc(N)cc2c1O`, for which the mutagenic call under setting [1] was “inactive; negative”; the mutagenic call under setting [2] is “active; positive”; the mutagenic call under setting [4] was “inactive; negative”; the mutagenic call under setting [5] was “inactive; negative”; the mutagenic call (Test System: AMES SALMONELLA TYPHIMURIUM, Strain/Indicator: TA1538, Metabolic Activation: NONE, Method: STANDARD PLATE) was “inactive; negative”; the mutagenic call (Test System: AMES SALMONELLA TYPHIMURIUM, Strain/Indicator: TA1538, Metabolic Activation: RAT, LIVER, S-9, AROCLOR 1254, Method: STANDARD PLATE) was “active; positive”.
